According to patent US20180155386A1, “PROGESTERONE ANTAGONISTS” (Evestra, Inc., priority 2011, published 2018):

Assays:
[1] = system: nidation (implantation) sites in pregnant rats; assay: Antinidation test in rat; format: in vivo, rats (Sprague-Daley); details: rats with implantation sites / rats treated; 3 mg/day s.c. from day 5 of pregnancy, counted at day 9; 0/3 = full progesterone antagonist
Experimental: For every compound to be screened in rats (Sprague-Daley) 3 control rats (vehicle treated, s.c.), 3 rats treated (s.c.) with a known progestin antagonist and 3 rats treated (s.c.) with the test compound (3 mg/day) are used. Female rats will be placed with male rats for 3 to 4 days and exam the vagina for sperm plugs every morning. The presence of a sperm plug will indicate day 1 of pregnancy. Pregnant rats will be treated daily with 3 mg of the screened compound at beginning on day 5 of pregnancy. At day 9 of gestation the rats will be euthanized and nidation sites counted.

[2] = system: uterine weight of non-pregnant guinea pigs; assay: Uterine weights of guinea pigs; format: in vivo; details: 10 mg s.c. from day 10 of cycle; sacrifice day 18; untreated guinea pig 1.2 g; higher than 1.2 g indicates pure progesterone antagonistic activity
Experimental: 3 Non-pregnant guinea pigs in the luteal phase of the cycle will be treated with 10 mg of the compound subcutaneously beginning on day 10 of the cycle. Animals were sacrificed on day 18 after the start of the treatment and the uterine weights were obtained at the time of sacrifice. Comparisons will be made to onapristone-treated animals at 10 mg/animal/day s.c

[3] = system: progesterone receptor positive breast cancer; details: rat model of PR positive breast cancer; cited from earlier work
[4] = target: T1, progesterone receptor-LBD-UAS-bla HEK 293T cells (Homo sapiens, UniProt P06401); assay: Progesterone Antagonist Screen (GeneBLAzer Beta-lactamase reporter, activated by control agonist R5020); format: cell-based; details: values relative to RU486, which is 100%; HEK 293T reporter cells, agonist R5020 at EC80
T1 construct: host or cells: HEK 293T
T1 sequence (P06401 679-913 limits assumed): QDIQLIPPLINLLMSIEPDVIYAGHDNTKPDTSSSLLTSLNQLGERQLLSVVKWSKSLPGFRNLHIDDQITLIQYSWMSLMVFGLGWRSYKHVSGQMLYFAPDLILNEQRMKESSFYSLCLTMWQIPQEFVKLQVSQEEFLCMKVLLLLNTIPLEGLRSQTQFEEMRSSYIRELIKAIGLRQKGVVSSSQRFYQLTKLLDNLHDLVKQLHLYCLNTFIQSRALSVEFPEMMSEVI
Experimental: Determination of the agonist/antagonist nature of the test compounds was carried out using Invitrogen's SelectScreen™ Cell-based nuclear receptor profiling service which uses the GeneBLAzer® Beta-lactamase reporter technology. Basically this assay uses a Beta-lactamase cDNA under transcriptional control of an Upstream Activator Sequence (UAS). The UAS is activated by the GAL4 transcription factor DNA binding domain (DBD), which is expressed as a fusion protein with the target receptor ligand binding domain (LBD). Upon ligand binding, the GAL4(DBD)-NR(LDB) binds to the UAS, which controls transcription of Beta-lactamase. Beta-lactamase cleaves a special engineered fluorescent substrate which results in a change in the measured fluorescence wavelength.
The generalized protocol used for the Progesterone Antagonist Screen, activated by control Agonist R5020 is as follows:
The progesterone receptor-LBD-UAS-bla HEK 293T cells are thawed and prepared as described above for the Agonist screen. 4 μL of a 10× serial dilution of control antagonist RU-486 (starting concentration, 100 nM) or test compounds are added to appropriate wells of a TC-Treated assay plate. 32 μL of cell suspension is added to the wells which is then pre-incubated at 37° C./5% CO2 in a humidified incubator with test compounds and control antagonist titration for 30 minutes. 4 μL of a 10× control agonist (see above) at the predetermined EC80 concentration is added to wells containing the control antagonist or test compounds. The plate is incubated for 16-24 hours at 37° C./5% CO2 in a humidified incubator. 8 μL of 1 μM Substrate Loading Solution is added to each well and the plate is incubated for 2 hours at room temperature. The plate is then read on a fluorescence plate reader (Tecan Safire).

[5] = system: human breast cancer cell line T47D; assay: In vitro antiproliferative activity in human breast cancer cell line T47D (MTT); format: cell-based; details: 168 h, T47D cells, 7 days after cell seeding
Experimental: Cells from frozen stock were expanded in T75 cell culture flasks. For the experiment, cells in the logarithmic growth phase (70% confluent) were cultivated for 3 day without estradiol and then washed with PBS, detached by trypsination and suspended in 5 ml of fresh RPMI-1640 medium. Cells were centrifuged for 5 min at 1000 rpm and the pellet was resuspended in RPMI-1640 medium.
Cells were seeded in 96-well plates with a density of 5000 cells/well/in 0.18 mL RPMI-1640 medium. Cells were allowed to attach for 24 h. Visual control for viability at 24 h and cell culture medium change. At this time point, compounds were added in 20 μl to the final concentration. After 3 days medium and compounds where changed again. Finally, 7 days after cell seeding, 20 μl MTT-solution was added to each well and 4 h later the formed tetrazolium salt was measured with a photometer.

progesterone receptor = target: T2, progesterone receptor (Homo sapiens, UniProt P06401); details: background statement in words; cited from earlier work
T2 sequence (P06401 1-933): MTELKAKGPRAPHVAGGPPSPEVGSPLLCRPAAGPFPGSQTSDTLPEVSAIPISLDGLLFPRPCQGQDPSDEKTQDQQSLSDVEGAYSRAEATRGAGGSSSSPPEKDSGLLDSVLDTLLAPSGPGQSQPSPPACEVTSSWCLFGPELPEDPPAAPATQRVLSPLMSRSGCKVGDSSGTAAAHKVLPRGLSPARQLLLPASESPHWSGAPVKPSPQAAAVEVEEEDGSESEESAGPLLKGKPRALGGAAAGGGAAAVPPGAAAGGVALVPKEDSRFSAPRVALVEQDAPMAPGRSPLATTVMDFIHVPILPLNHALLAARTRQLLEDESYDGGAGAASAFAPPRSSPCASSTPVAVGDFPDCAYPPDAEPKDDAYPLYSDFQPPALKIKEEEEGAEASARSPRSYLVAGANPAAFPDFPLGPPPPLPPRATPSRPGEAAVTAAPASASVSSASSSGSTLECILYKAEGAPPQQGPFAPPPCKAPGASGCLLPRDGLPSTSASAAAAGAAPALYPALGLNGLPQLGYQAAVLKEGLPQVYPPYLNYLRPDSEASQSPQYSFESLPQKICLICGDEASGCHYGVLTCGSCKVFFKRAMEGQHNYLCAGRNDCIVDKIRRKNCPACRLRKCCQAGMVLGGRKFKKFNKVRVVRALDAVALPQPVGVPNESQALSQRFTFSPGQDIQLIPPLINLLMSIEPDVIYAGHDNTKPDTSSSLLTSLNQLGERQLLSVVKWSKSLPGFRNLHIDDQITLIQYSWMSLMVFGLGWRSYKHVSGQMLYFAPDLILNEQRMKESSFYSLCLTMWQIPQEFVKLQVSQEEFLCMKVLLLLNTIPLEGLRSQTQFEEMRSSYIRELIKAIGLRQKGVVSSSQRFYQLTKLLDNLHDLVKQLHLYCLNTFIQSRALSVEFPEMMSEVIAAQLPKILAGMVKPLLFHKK

glucocorticoid receptor = target: T3, glucocorticoid receptor (Homo sapiens, UniProt P04150); details: background statement in words; cited from earlier work
T3 sequence (P04150 1-777): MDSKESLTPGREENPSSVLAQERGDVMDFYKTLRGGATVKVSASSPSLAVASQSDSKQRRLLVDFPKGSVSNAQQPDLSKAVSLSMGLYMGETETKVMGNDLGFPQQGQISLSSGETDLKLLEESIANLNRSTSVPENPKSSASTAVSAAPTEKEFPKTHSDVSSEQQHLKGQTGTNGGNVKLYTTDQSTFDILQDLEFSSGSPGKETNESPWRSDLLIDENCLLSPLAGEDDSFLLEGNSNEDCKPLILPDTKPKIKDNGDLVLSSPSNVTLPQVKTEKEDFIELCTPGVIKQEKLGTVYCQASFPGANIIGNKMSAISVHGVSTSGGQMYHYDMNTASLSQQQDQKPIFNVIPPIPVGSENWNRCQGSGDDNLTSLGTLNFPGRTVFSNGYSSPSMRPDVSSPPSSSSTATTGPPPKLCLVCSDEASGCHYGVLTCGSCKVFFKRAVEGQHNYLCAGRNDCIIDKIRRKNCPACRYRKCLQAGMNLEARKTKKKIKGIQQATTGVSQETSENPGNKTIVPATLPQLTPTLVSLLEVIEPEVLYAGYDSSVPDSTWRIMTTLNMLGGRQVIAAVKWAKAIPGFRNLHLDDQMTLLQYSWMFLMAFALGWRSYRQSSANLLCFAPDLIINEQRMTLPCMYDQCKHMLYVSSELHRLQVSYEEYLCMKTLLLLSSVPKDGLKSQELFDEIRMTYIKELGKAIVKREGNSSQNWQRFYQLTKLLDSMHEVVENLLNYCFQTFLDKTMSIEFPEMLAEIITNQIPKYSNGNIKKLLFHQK

| SMILES | Implantation Sites [1] | Uterine Weights of Guinea Pigs Treated with antiprogestins (grams) [2] | development of new tumors [3] | tumor size [3] | Emax [4] | IC50 [5] | antiprogestagenic activity / progesterone antagonism (progesterone receptor) | antiglucocorticoid effects / glucocorticoid receptor antagonism (glucocorticoid receptor) |
| --- | --- | --- | --- | --- | --- | --- | --- | --- |
| COCC(=O)[C@@]1(OC(C)=O)CC[C@H]2[C@@H]3CCC4=CC(=O)CCC4=C3[C@@H](c3ccc(N(C)C)cc3)C[C@@]21C [CDB-4124, Proellex, reference compound] | 0/3 | 1.41 grams | decrease in the development of new tumors | regression of tumor size | – | – | – | – |
| CC(=O)c1ccc([C@H]2C[C@@]3(C)C(CC[C@@]3(O)/C=C/C(F)(F)F)C3CCC4=CC(=O)CCC4=C32)cc1 (stereo partly drawn) [Compound 1b, 11β-(4′-Acetylphenyl)-17β-hydroxy-17-(3,3,3-trifluoroprop-1(E)-enyl)-estra-4,9-diene-3-one] | 0/3 | 0.785 grams | – | – | 33% | 0.64 nM | – | – |
| CC(=O)c1ccc([C@H]2C[C@@]3(C)[C@@H](CC[C@@]3(O)CC(F)=C(F)F)[C@@H]3CCC4=CC(=O)CCC4=C32)cc1 [Compound 1c, 11β-(4′-Acetylphenyl)-17β-hydroxy-17-(2,3,3-trifluoroprop-2-enyl)-estra-4,9-diene-3-one] | 0/3 | 1.8 grams | – | – | 21% | 3.1 nM | – | – |
| C[C@]12C[C@H](c3ccc(C(=O)C4CC4)cc3)C3=C4CCC(=O)C=C4CC[C@H]3[C@@H]1CC[C@@]2(O)C(F)(F)C(F)(F)F [Compound 2a, 11β-(4′-[Cyclopropylcarbonyl]phenyl)-17β-hydroxy-17-(1,1,2,2,2-pentafluoroethyl)-estra-4,9-diene-3-one] | 0/3 | 2.3 grams | – | – | 91% | 1.2 nM | – | – |
| CC#C[C@]1(O)CC[C@H]2[C@@H]3CCC4=CC(=O)CCC4=C3[C@@H](c3ccc(N(C)C)cc3)C[C@@]21C [RU 486, Mifepristone] | – | 1.81 grams | – | – | – | – | potent progesterone antagonist | overt glucocorticoid receptor antagonism |
| CC(=O)c1ccc([C@H]2C[C@@]3(C)[C@@H](CC[C@@]3(O)C(F)(F)C(F)(F)F)[C@@H]3CCC4=CC(=O)CCC4=C32)cc1 [ZK 230211, Lonaprisan, reference compound] | – | – | – | – | 81% | 0.3 nM | high antiprogestagenic activity | only marginal antiglucocorticoid effects |
